Values quoted from earlier work, collected in patent US20180050107A1, “NEUROSTEROID COMPOSITIONS AND METHODS OF USE THEREOF” (Janssen Pharmaceutica NV, priority 2016, published 2018).
Read-outs that look alike come from different tables or passages of the source. Where a SMILES comes first, the peptide text is derived from it.

Assays:
[1] = molecular target: T1, TrkB receptors (Mus musculus, UniProt P15209); conditions: mouse hippocampus
T1 construct: its downstream PI3K/Akt and MAPK receptors in the mouse hippocampus; host or cells: mouse hippocampus
T1 sequence (P15209 32-821): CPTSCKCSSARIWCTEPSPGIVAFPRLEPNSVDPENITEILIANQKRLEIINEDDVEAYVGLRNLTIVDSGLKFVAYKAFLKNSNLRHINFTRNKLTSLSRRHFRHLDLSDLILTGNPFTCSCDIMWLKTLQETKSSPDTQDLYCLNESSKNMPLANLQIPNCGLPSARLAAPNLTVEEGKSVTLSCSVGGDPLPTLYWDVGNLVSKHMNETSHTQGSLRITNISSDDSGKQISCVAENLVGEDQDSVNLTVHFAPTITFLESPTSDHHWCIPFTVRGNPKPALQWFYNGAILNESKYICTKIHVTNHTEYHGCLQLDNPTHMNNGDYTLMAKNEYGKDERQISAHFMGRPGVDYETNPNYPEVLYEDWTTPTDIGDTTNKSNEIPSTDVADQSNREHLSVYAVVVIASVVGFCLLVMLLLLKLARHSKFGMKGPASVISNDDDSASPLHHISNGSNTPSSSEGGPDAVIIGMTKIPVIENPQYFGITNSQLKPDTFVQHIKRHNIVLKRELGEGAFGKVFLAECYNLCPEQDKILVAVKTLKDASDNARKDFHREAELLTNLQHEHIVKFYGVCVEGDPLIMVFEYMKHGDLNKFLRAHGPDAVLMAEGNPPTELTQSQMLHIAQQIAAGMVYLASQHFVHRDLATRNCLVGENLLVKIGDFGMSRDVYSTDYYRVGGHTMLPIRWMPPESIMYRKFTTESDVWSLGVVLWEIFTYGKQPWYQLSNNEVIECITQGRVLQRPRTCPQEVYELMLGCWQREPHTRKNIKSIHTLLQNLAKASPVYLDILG

[2] = ICU patients
[3] = molecular target: T2, rat cerebellar GABA delta subunits (Rattus norvegicus, UniProt P18506)
T2 construct: rat cerebellar GABA delta subunits; host or cells: rat cerebellum
T2 sequence (P18506 17-449 limits assumed): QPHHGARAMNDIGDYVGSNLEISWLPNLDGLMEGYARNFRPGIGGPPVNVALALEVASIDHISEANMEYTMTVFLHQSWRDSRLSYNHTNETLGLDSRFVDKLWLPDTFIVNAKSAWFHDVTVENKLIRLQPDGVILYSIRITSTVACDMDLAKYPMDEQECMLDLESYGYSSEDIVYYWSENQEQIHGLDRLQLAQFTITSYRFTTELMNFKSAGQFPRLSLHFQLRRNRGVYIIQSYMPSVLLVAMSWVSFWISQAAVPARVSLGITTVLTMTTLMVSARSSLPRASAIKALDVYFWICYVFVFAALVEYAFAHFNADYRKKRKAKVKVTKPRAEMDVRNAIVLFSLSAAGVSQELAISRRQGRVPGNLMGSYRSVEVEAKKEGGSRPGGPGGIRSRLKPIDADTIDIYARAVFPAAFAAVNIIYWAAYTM
T2 sequence (P30191 20-453 partner): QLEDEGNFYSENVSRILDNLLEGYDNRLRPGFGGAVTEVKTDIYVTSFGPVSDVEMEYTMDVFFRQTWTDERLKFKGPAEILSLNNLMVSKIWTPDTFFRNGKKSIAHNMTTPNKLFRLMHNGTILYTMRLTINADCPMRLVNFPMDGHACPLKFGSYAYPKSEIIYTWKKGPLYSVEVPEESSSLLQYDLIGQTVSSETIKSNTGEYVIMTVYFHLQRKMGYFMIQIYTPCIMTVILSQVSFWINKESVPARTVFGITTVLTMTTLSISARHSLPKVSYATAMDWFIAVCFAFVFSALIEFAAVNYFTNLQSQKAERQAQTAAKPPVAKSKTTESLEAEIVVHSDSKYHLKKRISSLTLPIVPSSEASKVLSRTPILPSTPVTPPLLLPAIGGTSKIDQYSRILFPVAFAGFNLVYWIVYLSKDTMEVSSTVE

[4] = not given; remark: listed apart in the source
[5] = in vivo
[6] = not given; remark: listed apart in the source
[7] = gangliosides added to conventional liposomes
[8] = molecular target: β2-AR (Homo sapiens, UniProt P07550); conditions: 0.1 μM
Sequence of β2-AR (P07550 whole entry): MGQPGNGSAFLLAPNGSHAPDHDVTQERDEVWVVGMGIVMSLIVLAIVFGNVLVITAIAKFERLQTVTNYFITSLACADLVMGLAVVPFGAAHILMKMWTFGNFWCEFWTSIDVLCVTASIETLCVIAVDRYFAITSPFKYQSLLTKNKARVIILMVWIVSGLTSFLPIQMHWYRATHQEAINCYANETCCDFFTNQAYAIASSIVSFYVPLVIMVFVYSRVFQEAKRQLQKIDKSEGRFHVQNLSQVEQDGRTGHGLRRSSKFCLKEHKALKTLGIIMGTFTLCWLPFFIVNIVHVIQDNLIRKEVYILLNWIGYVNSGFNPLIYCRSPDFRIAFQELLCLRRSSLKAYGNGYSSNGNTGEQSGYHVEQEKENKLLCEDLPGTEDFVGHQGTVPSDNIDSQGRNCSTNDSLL

[9] = in vivo; remark: listed apart in the source
[10] = tested on: MMP-9; conditions: 0.1 μM
[11] = tested on: MDA-MB-231 breast cancer cells; conditions: 0.1 μM
[12] = molecular target: T3, GABA(A) delta (Homo sapiens, UniProt O14764); conditions: 10 uMol/L, in vitro
T3 sequence (O14764 25-452): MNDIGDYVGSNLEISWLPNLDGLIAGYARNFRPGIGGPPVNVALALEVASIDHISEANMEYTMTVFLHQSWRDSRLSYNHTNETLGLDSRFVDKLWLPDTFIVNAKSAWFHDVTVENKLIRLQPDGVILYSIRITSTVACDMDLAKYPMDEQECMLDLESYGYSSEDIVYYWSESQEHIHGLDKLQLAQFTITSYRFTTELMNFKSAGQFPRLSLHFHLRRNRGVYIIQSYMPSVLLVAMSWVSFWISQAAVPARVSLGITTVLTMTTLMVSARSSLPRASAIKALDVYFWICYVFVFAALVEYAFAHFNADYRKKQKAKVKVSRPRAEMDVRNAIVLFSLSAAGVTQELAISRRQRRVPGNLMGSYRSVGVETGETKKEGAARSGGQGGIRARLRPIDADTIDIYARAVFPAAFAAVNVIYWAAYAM

[13] = tested on: neurons; conditions: read-out: EC50 for suppression of apoptosis in neurons
[14] = tested on: lung cancer patients; conditions: combination with EGFR-TKI chemotherapy
[15] = molecular target: T3, GABA(A) delta; conditions: 1 μMol/L
[16] = in vivo; remark: listed apart in the source
[17] = oral administration, healthy volunteers
[18] = molecular target: T3, GABA(A) delta; conditions: 100 uM
[19] = in vivo; remark: listed apart in the source
[20] = in vivo; remark: listed apart in the source
[21] = not given; remark: listed apart in the source
[22] = molecular target: T4, PPAR-gamma receptors (Homo sapiens, UniProt P37231); conditions: read-out: EC for activation of PPAR-gamma receptors
T4 sequence (P37231 1-505): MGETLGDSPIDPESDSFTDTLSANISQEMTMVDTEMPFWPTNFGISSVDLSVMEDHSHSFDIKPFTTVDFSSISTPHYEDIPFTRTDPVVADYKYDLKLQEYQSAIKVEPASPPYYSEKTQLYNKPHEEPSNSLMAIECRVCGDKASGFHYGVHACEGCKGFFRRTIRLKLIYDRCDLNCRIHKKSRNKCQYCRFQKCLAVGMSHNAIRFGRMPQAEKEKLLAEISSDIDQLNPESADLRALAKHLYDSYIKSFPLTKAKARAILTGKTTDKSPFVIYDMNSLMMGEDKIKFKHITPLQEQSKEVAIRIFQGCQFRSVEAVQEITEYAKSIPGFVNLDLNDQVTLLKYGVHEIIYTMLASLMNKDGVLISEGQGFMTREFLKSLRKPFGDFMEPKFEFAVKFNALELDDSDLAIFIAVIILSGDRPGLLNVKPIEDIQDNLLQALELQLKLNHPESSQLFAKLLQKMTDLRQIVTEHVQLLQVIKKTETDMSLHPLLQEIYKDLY

In the case of O=c1cc(-c2ccccc2)oc2c(O)c(O)ccc12 [7,8-DHF, 7,8 dihydroxyflavone], the “concentration activating TrkB receptors” value [1] is given as 250 nM.
For C[C@H](N)C(=O)N[C@@H](CCC(N)=O)C(=O)O [AG, Alanyl-Glutamine] (H-Ala-Gln-OH), the plasma half-life [2] is listed as 15.6 min and the “log P” value is listed as −2.15.
For CC(=O)[C@H]1CC[C@H]2[C@@H]3CC[C@H]4C[C@H](O)CC[C@]4(C)[C@H]3CC[C@]12C [Allopregnanolone, 3α-hydroxy-5α-pregnan-20-one], the “concentration range potentiating rat cerebellar GABA delta subunits” value [3] is listed as “nanomolar range”.
For NCCC(=O)N[C@@H](Cc1cnc[nH]1)C(=O)O [Carnosine], the “half-life in human plasma” value [4] is given as less than 5 min and the “log P” value is given as −1.19.
For O=C1N[C@@H](Cc2cnc[nH]2)C(=O)N2CCC[C@@H]12 [Cyclo His-Pro], the “biphasic half-life, first phase” value [5] is listed as 1 min, the “biphasic half-life, second phase” value [5] is listed as 33 min and the “log P” value is listed as −1.48.
In the case of Nc1ccn([C@@H]2O[C@H](CO)[C@@H](O)[C@@H]2O)c(=O)n1 [Cytarabine], the half-life in plasma ([6]; continuous infusion) is listed as 126 min, the half-life ([6]; intravenously delivered) is listed as 7 to 107 min and the half-life ([6]; subcutaneously delivered) is listed as 18 min.
In the case of O=C[C@H](O)[C@@H](O)[C@H](O)[C@H](O)COP(=O)(O)O [Example G6P, glucose-6-phosphate], the “flux from the liposome into plasma” value [7] is listed as “about 5 % per hour” and the “log P” value is listed as −3.24.
For O=C(O)[C@H]1O[C@@H](Oc2c(-c3ccc(O)c(O)c3)oc3cc(O)cc(O)c3c2=O)[C@H](O)[C@@H](O)[C@@H]1O [Example Q3G, quercetin-3-O-glucuronide], the “binding of [(3)H]-NA to β2-AR” value [8] is listed as “inhibited the binding”, the plasma elimination half-life [9] is listed as 140 min and the MMP-9 induction [10] is listed as “suppressed”. The “invasion of MDA-MB-231 breast cancer cells” value [11] was “suppressed invasion” and the “log P” value was 2.10.
For N[C@@H](CCC(=O)NCCS(=O)(=O)O)C(=O)O [GGT, Gamma-Glutamyltaurine], the “log P” value is listed as −3.36.
For C=CCc1ccc(O)c(-c2ccc(O)c(CC=C)c2)c1 [Honokiol], the “increase of GABA current” value [12] is given as “about 900%”.
For O=C1C[C@@H](c2ccccc2)Oc2cc(O)cc(O)c21 [Pinocembrin], the EC50 [13] is given as 0.1 µM.
In the case of CC(C)=CCC[C@](C)(O)[C@H]1CC[C@]2(C)[C@@H]1[C@H](O)C[C@@H]1[C@@]3(C)CC[C@H](O[C@@H]4O[C@H](CO)[C@@H](O)[C@H](O)[C@H]4O[C@@H]4O[C@H](CO)[C@@H](O)[C@H](O)[C@H]4O)C(C)(C)[C@@H]3CC[C@]12C [Rg3, ginsenoside Rg3], the “increase in the duration of progression free survival” value [14] is given as 20%.
For C[C@]12CC[C@@H](O)C[C@H]1CC[C@@H]1[C@@H]2CC[C@]2(C)[C@@H](C(=O)CO)CC[C@@H]12 [THDOC, tetrahydrodeoxycorticosterone], the “increase of GABA current” value [15] is given as “at least 700%”.
For NC(=O)[C@@H]1CCCN1C(=O)[C@H](Cc1cnc[nH]1)NC(=O)[C@@H]1CCC(=O)N1 [TRH], the half-life [16] is given as 7.6 min.
In the case of NCCS(=O)(=O)O [Taurine], the half-life [17] is listed as 60 min and the “log P” value is listed as −3.36.
For O=C(O)[C@H]1O[C@@H](Oc2cc3oc(-c4ccccc4)cc(=O)c3c(O)c2O)[C@H](O)[C@@H](O)[C@@H]1O [baicalin], the “log P” value is given as 1.27.
In the case of COc1ccc([C@@H]2CC(=O)c3c(O)cc(O)cc3O2)cc1O [hesperetin], the “log P” value is given as 2.90.
For O=c1c(O[C@@H]2O[C@H](CO)[C@H](O)[C@H](O)[C@H]2O)c(-c2ccc(O)c(O)c2)oc2cc(O)cc(O)c12 [hyperoside], the “log P” value is listed as 1.75.
For CC1(C)C2CC=C(CO)C1C2 (centres unmarked) [myrtenol], the “GABA(A) delta agonism” value [18] is given as “GABA(A) delta agonist”.
In the case of CC[C@H](C)[C@@H]1NC(=O)[C@H](Cc2ccc(O)cc2)NC(=O)[C@@H](N)CSSC[C@@H](C(=O)N2CCC[C@H]2C(=O)N[C@@H](CC(C)C)C(=O)NCC(N)=O)NC(=O)[C@H](CC(N)=O)NC(=O)[C@H](CCC(N)=O)NC1=O [oxytocin], the half-life [19] is given as roughly 6.8 min and the “crossing of the blood brain barrier” value [20] is given as “failure to cross the blood brain barrier”.
For O=C(O)[C@H]1O[C@@H](Oc2cc3oc(-c4ccc(O)cc4)cc(=O)c3c(O)c2O)[C@H](O)[C@@H](O)[C@@H]1O [scutellarin], the bioavailability ([21]; oral) is given as “less than 3%” and the “factor of decrease of plasma concentration” value ([21]; over about an hour) is given as “about 10”.
For CC1=CC(O)C2CC1C2(C)C (centres unmarked) [verbenol], the “GABA(A) delta agonism” value [18] is listed as “GABA(A) delta agonist”.
For hesperetin glucuronide, the EC50 [22] is listed as roughly 100 µM and the “log P” value is listed as 0.12.
